{"source": "patent EP0552018A1", "about": "“Use of Rifabutin for delaying or preventing mycobacterial infections” (Erbamont Inc., priority 1992, dated 1993)", "key": {"[1]": {"test_system": "Mycobacterium avium complex (MAC)", "assay": "Multicenter, randomized, placebo controlled clinical trial: prevention or delay of MAC infection in AIDS patients", "type": "in vivo, human"}, "M. tuberculosis": {"test_system": "M. tuberculosis", "assay": "Same clinical trial: occurrence of M. tuberculosis infections", "type": "in vivo, human", "conditions": "rifabutin 300 mg/day; three patients on the placebo arm developed M. tuberculosis infections", "method": "The efficacy of rifabutin on the prevention of MAC disease in HIV positive patients having a CD4 count of ≦200/mm³ was assessed in a large multicenter controlled trial in the United States.\nFive hundred ninety (590) patients with CD4 counts ≦200/mm³; and with no clinical evidence of MAC infection (as determined by two blood cultures) were randomly assigned to receive either rifabutin monotherapy (300 mg/day) or placebo. Nine of these patients, five in the rifabutin group and four in the placebo group, who were enrolled with presumptive negative evidence of MAC blood cultures were subsequently found to have had MAC bacteremia at baseline and were excluded from the study. Fifty-six of the 581 patients who had confirmed negative cultures at baseline developed MAC infection after having enrolled in the study. Eighteen of those 56 patients were in the rifabutin group and the other 38 were in the placebo group. After excluding seven patients from each group who were considered to be inevaluable, the treatment groups were compared with respect to the incidence of MAC infection; the observed difference was highly statistically significant (p=0.002, Chi-squared test).\nThree patients on the placebo arm of the study developed M. tuberculosis infections (other than MAC) while no patients receiving rifabutin developed tuberculosis. […]"}, "[2]": {"test_system": "atypical mycobacterial infection", "assay": "Same clinical trial: occurrence of atypical mycobacterial infection", "type": "in vivo, human", "conditions": "rifabutin 300 mg/day; one patient on the placebo arm developed it"}, "[3]": {"conditions": "cited from earlier work"}}}
{"smiles": "CO[C@H]1/C=C/O[C@@]2(C)Oc3c(C)c(O)c4c(c3C2=O)C2=NC3(CCN(CC(C)C)CC3)NC2=C(NC(=O)/C(C)=C\\C=C\\[C@H](C)[C@H](O)[C@@H](C)[C@@H](O)[C@@H](C)[C@H](OC(C)=O)[C@@H]1C)C4=O", "note": "[rifabutin, 4-dioxo-3,4-[2-spiro-(N-isobutyl-4-piperidyl)-2,5-dihydro-1H-imidazo]-rifamycin S]", "values": [{"measurement": "Patients who developed MAC infection after having enrolled in the study", "setting": "[1]; HIV positive patients, CD4 ≦200/mm³, rifabutin monotherapy 300 mg/day oral, of 581 patients with confirmed negative cultures at baseline, before excluding inevaluable patients", "value": "Eighteen"}, {"measurement": "Time of MAC infection in patients who got a MAC infection", "setting": "[1]; analysis by Kaplan/Meier Methodology, compared with placebo", "value": "significantly later than patients on placebo"}, {"measurement": "Likelihood of placebo patients to die or to experience a MAC event relative to patients receiving rifabutin", "setting": "[1]; at any point in time, on average, Kaplan/Meier analysis", "value": 2.3, "unit": "times"}, {"measurement": "Number of: Patients without MAC", "setting": "[1]; evaluable patients, rifabutin 300 mg/day, group total 280", "value": 269}, {"measurement": "Number of: Patients with MAC", "setting": "[1]; evaluable patients, rifabutin 300 mg/day, group total 280, vs placebo x^2 = 9.76, P ≅ 0.002", "value": 11}, {"measurement": "Patients who developed tuberculosis", "setting": "M. tuberculosis", "value": "no patients"}, {"measurement": "Patients who developed atypical mycobacterial infection", "setting": "[2]", "value": "no patients"}, {"measurement": "Solubility in chloroform", "setting": "[3]; chloroform", "value": "soluble"}, {"measurement": "Solubility in methanol", "setting": "[3]; methanol", "value": "soluble"}, {"measurement": "Solubility in water", "setting": "[3]; water", "value": "very slightly soluble"}]}
